The text below walks through data of patent publication US11180496B2 (Daewoong Pharmaceutical Co., Ltd., priority 2017, dated 2021).

Structures are written as SMILES.

One experiment has as its target T1, BTK (Homo sapiens, UniProt Q06187).
T1 construct: purchased Promega
As to the kind of experiment: BTK inhibitory activity, ADP-Glo + BTK Kinase enzyme system kit (Promega). The format is biochemical. The note with it: BTK enzyme 1 ng/uL, ATP 10 uM, 15 min preincubation, luminescence, duplicate. On the procedure: (§1) The inhibitory activity against BTK and ITK of the compounds prepared in Examples above were measured as follows.
(§2) The inhibitory activity against BTK was evaluated using ‘ADP-Glo™+BTK Kinase enzyme system’ kit from Promega. […] 5 uL of substrate and 5 uL of ATP prepared at a final concentration of 10 uM were added to all wells of the plate after completion of the reaction, and allowed to react at 30° C. for 1 hour. All wells of the plate after completion of the reaction were treated with 25 uL of ADP-Glo™ reagent and reacted at 30° C. for 40 minutes. Then, 50 uL of the kinase detection buffer was applied to all wells of the plate, and then the light was blocked and reacted at 30° C. for 30 minutes. For the plate for which all reactions were completed, the luminescence was measured and the results were calculated. The evaluation was performed in duplicate. The respective values of negative and positive controls, depending on whether the enzymes were added without treatment of the compound, were determined, and IC50 was calculated based on the values.
In general terms: In ADP-Glo the light output rises with the ADP produced.

The target in another experiment is T2, ITK (Homo sapiens, UniProt Q08881).
T2 construct: purchased Promega
T2 sequence (Q08881 1-620): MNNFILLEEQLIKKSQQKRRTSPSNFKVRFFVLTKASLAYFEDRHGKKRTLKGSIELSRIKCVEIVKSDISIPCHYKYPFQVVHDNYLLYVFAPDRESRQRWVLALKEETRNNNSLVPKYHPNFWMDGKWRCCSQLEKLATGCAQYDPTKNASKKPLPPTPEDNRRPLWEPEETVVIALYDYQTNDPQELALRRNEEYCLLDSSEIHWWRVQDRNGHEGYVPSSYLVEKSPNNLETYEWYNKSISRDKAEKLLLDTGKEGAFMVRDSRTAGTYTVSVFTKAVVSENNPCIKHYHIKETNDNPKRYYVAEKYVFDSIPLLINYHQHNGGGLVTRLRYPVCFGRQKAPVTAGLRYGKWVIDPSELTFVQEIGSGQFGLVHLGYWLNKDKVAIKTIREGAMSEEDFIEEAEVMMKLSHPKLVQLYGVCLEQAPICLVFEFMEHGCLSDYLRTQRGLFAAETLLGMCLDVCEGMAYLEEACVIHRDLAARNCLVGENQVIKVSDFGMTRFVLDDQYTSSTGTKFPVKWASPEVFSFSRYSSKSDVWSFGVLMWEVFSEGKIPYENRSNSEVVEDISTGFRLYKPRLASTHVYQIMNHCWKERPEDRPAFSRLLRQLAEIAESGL
Nature of the experiment: ITK inhibitory activity, ADP-Glo + ITK Kinase enzyme system kit (Promega). It counts as biochemical. Conditions: ITK enzyme 0.4 ng/uL, ATP 25 uM, 15 min preincubation, luminescence, duplicate. On the procedure:
as §1
as §2, with “ITK” for “BTK”, “‘ADP-Glo™+ITK” for “‘ADP-Glo™+BTK”, “25” for “10”

T1 sequence (Q06187 whole entry): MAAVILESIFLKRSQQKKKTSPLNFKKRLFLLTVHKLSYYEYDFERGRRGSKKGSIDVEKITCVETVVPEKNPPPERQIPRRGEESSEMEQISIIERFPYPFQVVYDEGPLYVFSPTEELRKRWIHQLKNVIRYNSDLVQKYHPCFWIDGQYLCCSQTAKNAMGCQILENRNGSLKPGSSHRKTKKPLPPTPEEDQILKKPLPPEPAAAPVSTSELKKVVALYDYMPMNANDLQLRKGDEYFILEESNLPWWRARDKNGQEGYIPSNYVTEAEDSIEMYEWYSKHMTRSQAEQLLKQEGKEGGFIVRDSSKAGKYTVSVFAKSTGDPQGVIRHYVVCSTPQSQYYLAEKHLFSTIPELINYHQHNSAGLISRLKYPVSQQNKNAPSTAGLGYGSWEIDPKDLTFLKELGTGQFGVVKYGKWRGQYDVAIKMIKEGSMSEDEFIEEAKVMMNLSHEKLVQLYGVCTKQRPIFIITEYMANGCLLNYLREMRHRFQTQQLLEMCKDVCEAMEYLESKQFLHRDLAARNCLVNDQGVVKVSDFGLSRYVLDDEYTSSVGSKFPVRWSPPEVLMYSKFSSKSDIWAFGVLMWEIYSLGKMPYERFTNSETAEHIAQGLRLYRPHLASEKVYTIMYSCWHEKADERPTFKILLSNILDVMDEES

A word on the IC50: it is the point on the concentration scale where inhibition reaches its midpoint. As for `C=CC(=O)N1CCC[C@@H](n2nc(C(=O)Nc3ccc4c(c3)OCCO4)c3c(N)ncc(Cl)c32)C1` [Example 79, (R)-1-(1-acryloylpiperidin-3-yl)-4-amino-7-chloro-N-(2,3-di hydrobenzo[b][1,4]dioxin-6-yl)-1H-pyrazolo[4,3-c]pyridine-3-carboxamide], the IC50 is 100 nM at BTK and 54.9 nM at ITK.

`C=CC(=O)N1CCC[C@@H](n2nc(C(=O)OC(C)(C)C)c3c(N)nccc32)C1` [Example 72, (R)-tert-butyl 1-(1-acryloylpiperidin-3-yl)-4-amino-1H-pyrazolo[4,3-c]pyridine-3-carboxylate]: the IC50 on BTK was determined as 88.9 nM; on ITK it was 68.2 nM.

For `C=CC(=O)N1CC2CC1[C@H](n1nc(-c3ccc(C(=O)Nc4ccccn4)cc3F)c3c(N)nccc31)C2` (stereo partly drawn) [Example 51, 4-(1-((6R)-2-acryloyl-2-azabicyclo[2.2.1]heptan-6-yl)-4-amino-1H-pyrazolo[4,3-c]pyridin-3-yl)-3-fluoro-N-(pyridin-2-yl)benzamide], the IC50 on BTK worked out at 0.5 nM; on ITK, 30.8 nM.

Turning to `C=CC(=O)N1CCC[C@@H](n2nc(-c3ccc(C(=O)Nc4ccccc4)cc3)c3c(N)ncc(-c4cnn(C(F)F)c4)c32)C1` [Example 33, (R)-4-(1-(1-acryloylpiperidin-3-yl)-4-amino-7-(1-(difluoromethyl)-1H-pyrazol-4-yl)-1H-pyrazolo[4,3-c]pyridin-3-yl)-N-phenylbenzamide], the concentration for half-maximal inhibition (IC50) on BTK came to 10.2 nM; on ITK, 307 nM.

Turning to `C=CC(=O)N1CCCC(n2nc(-c3ccc(Oc4ccccc4)cc3)c3c(N)ncc(Cl)c32)C1` (stereo not shown) [Example 9, 1-(3-(4-amino-7-chloro-3-(4-phenoxyphenyl)-1H-pyrazolo[4,3-c]pyridin-1-yl)piperidin-1-yl)prop-2-en-1-one], the IC50 came out at 1.5 nM at BTK and 11.3 nM at ITK.

For the compound `C=CC(=O)N1CCCC(n2nc(-c3ccc(Oc4ccccc4)cc3)c3c(N)ncc(Cc4ccccc4)c32)C1` (stereo not shown) [Example 6, 1-(3-(4-amino-7-benzyl-3-(4-phenoxyphenyl)-1H-pyrazolo[4,3-c]pyridin-1-yl)piperidin-1-yl)prop-2-en-1-one], the IC50 on BTK worked out at 29.9 nM; at ITK it was 288 nM.

As to `C=CC(=O)N1CCC[C@@H](n2nc(-c3ccc(C(=O)Nc4ccccc4)cc3)c3c(N)ncc(-c4cc[nH]n4)c32)C1` [Example 29, (R)-4-(1-(1-acryloylpiperidin-3-yl)-4-amino-7-(1H-pyrazol-3-yl)-1H-pyrazolo[4,3-c]pyridin-3-yl)-N-phenylbenzamide], the IC50 at BTK was 3.1 nM; at ITK, 556 nM.

Take `C=CC(=O)N1CCC[C@@H](n2nc(-c3ccc(C(=O)Nc4ccccn4)cc3Cl)c3c(N)ncc(C=C)c32)C1` [Example 69, (R)-4-(1-(1-acryloylpiperidin-3-yl)-4-amino-7-vinyl-1H-pyrazolo[4,3-c]pyridin-3-yl)-3-chloro-N-(pyridin-2-yl)benzamide]: the IC50 on BTK worked out at 2 nM; on ITK, 2.9 nM.

`C=CC(=O)N1CCC[C@@H](n2nc(-c3ccc(C(=O)Nc4ccccc4)cc3)c3c(N)ncc(-c4cnc(C)s4)c32)C1` [Example 32, (R)-4-(1-(1-acryloylpiperidin-3-yl)-4-amino-7-(2-methylthiazol-5-yl)-1H-pyrazolo[4,3-c]pyridin-3-yl)-N-phenylbenzamide]: the IC50 on BTK is 6.2 nM; at ITK it was 200 nM.

Regarding `C=CC(=O)N1CCC[C@@H](n2nc(-c3ccc(C(=O)Nc4ccccc4)cc3)c3c(N)ncc(I)c32)C1` [Example 25, (R)-4-(1-(1-acryloylpiperidin-3-yl)-4-amino-7-iodo-1H-pyrazolo[4,3-c]pyridin-3-yl)-N-phenyl benzamide], the IC50 on BTK is 1.5 nM; at ITK, 39.5 nM.

As for `C=CC(=O)N1CC(n2nc(-c3ccc(C(=O)Nc4ccccn4)cc3F)c3c(N)nccc32)C1` [Example 52], the figures for the IC50 at BTK and at ITK were 1.6 nM and 51.6 nM, respectively.

Turning to `C=C(C)C(=O)N1CCC[C@@H](n2nc(-c3ccc(C(=O)Nc4ccccn4)cc3F)c3c(N)nccc32)C1` [Example 54, (R)-4-(4-amino-1-(1-methacryloylpiperidin-3-yl)-1H-pyrazolo[4,3-c]pyridin-3-yl)-3-fluoro-N-(pyridin-2-yl)benzamide], the IC50 at BTK is 77.5 nM; on ITK, > 1000 nM.

Take `C#CC(=O)N1CCCC(n2nc(-c3ccc(Oc4ccccc4)cc3)c3c(N)nccc32)C1` (stereo not shown) [Example 2, 1-(3-(4-amino-3-(4-phenoxyphenyl)-1H-pyrazolo[4,3-c]pyridin-1-yl)piperidin-1-yl)prop-2-yn-1-one]: the IC50 turned out to be 3.5 nM on BTK and 15.7 nM on ITK.

For the compound `C=CC(=O)N1CCC[C@@H](n2nc(-c3ccc(C(=O)Nc4ccccn4)cc3F)c3c(N)ncc(Cl)c32)C1` [Example 49, (R)-4-(1-(1-acryloylpiperidin-3-yl)-4-amino-7-chloro-1H-pyrazolo[4,3-c]pyridin-3-yl)-3-fluoro-N-(pyridin-2-yl)benzamide], the values for the IC50 on BTK and on ITK were 1.2 nM and 3.3 nM, respectively.

Turning to `C=CC(=O)N1CCC[C@@H](n2nc(-c3ccc(C(=O)Nc4ccccn4)cc3)c3c(N)ncc(Cl)c32)C1` [Example 19, (R)-4-(1-(1-acryloylpiperidin-3-yl)-4-amino-7-chloro-1H-pyrazolo[4,3-c]pyridin-3-yl)-N-(pyridin-2-yl)benzamide], the IC50 at BTK worked out at 1.7 nM; at ITK, 7.8 nM.

For the compound `C=CC(=O)N1CCCC(n2nc(-c3ccc(Oc4ccccc4)cc3)c3c(N)nccc32)C1` (stereo not shown) [Example 1, 1-(3-(4-amino-3-(4-phenoxyphenyl)-1H-pyrazolo[4,3-c]pyridin-1-yl)piperidin-1-yl)prop-2-en-1-one], the IC50 on BTK is 1.4 nM; on ITK, 37.7 nM.

Regarding `C=CC(=O)N1CCC(n2nc(-c3ccc(Oc4ccccc4)cc3)c3c(N)ncc(I)c32)CC1` [Example 12, 1-(4-(4-amino-7-iodo-3-(4-phenoxyphenyl)-1H-pyrazolo[4,3-c]pyridin-1-yl)piperidin-1-yl)prop-2-en-1-one], the IC50 was 7.7 nM at BTK and > 1000 nM at ITK.

Regarding `C=CC(=O)N1CCC[C@@H](n2nc(C(=O)Nc3nc4ccc(Br)cc4o3)c3c(N)nccc32)C1` [Example 73, (R)-1-(1-acryloylpiperidin-3-yl)-4-amino-N-(6-bromobenzo[d]oxazol-2-yl)-1H-pyrazolo[4,3-c]pyridine-3-carboxamide], the IC50 on BTK was determined as 32 nM; at ITK, 141 nM.

With `C=CC(=O)N1CCC(n2nc(-c3ccc(Oc4ccccc4)cc3)c3c(N)nccc32)CC1` [Example 3, 1-(4-(4-amino-3-(4-phenoxyphenyl)-1H-pyrazolo[4,3-c]pyridin-1-yl)piperidin-1-yl)prop-2-en-1-one], the IC50 at BTK is 2.7 nM; on ITK, > 1000 nM.

Consider `CC#CC(=O)N1CC[C@H](n2nc(-c3ccc(C(=O)Nc4ccccc4)cc3)c3c(N)nccc32)C1` [Example 48, (S)-4-(4-amino-1-(1-but-2-ynoylpyrrolidin-3-yl)-1H-pyrazolo[4,3-c]pyridin-3-yl)-N-phenylbenzamide], for which the IC50 is > 400 nM on BTK and > 1000 nM on ITK.
